How the values were obtained:
[1] = target: T1, Dihydropteroate synthase (Bacillus anthracis) (UniProt Q81VW8); assay: Inhibition of Bacillus anthracis DHPS at 200 uM
T1 sequence (whole entry): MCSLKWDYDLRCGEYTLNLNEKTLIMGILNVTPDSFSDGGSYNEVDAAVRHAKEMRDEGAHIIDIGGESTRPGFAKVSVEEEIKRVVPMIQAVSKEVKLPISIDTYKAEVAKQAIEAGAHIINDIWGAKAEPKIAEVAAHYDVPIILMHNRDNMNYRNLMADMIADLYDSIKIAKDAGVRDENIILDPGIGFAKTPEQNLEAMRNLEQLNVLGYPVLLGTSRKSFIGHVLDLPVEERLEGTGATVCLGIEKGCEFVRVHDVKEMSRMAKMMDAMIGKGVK

[2] = target: T1, Dihydropteroate synthase (Bacillus anthracis); assay: Inhibition of Bacillus anthracis DHPS at 200 uM after 10 mins

For `Nc1nc2ncc(N(CCP(=O)(O)O)Cc3ccc(C(=O)O)cc3)cc2c(=O)[nH]1`, the inhibition [1] was 16.3% and the inhibition [2] was 30.5%.

`Nc1nc2ncc(N(CCCP(=O)(O)O)Cc3ccc(C(=O)O)cc3)cc2c(=O)[nH]1` was tested, and the inhibition [1] was 32.9% and the inhibition [2] was 44.3%.

With `Nc1nc2c(c(=O)[nH]1)C[C@@H](N(CCCP(=O)(O)O)Cc1ccc(C(=O)O)cc1)CN2` the inhibition [1] was 3.9% and the inhibition [2] was 6.3%.

For `Nc1nc2c(c(=O)[nH]1)CC(N(CCP(=O)(O)O)Cc1ccc(C(=O)O)cc1)CN2` (stereo not drawn), the inhibition [1] was 3.6% and the inhibition [2] was 5.7%.

From ChEMBL document CHEMBL1667794, “Synthesis of bi-substrate state mimics of dihydropteroate synthase as potential inhibitors and molecular probes” (Bioorg Med Chem, 2011)
